Reference: publication PMC7433713, “Beyond Single Nucleotide Polymorphisms: CYP3A5^∗3^∗6^∗7 Composite and ABCB1 Haplotype Associations to Tacrolimus Pharmacokinetics in Black and White Renal Transplant Recipients” (Frontiers in Genetics, 2020)
Like-named read-outs stand apart in the source and are kept apart here.

Key:
clinical = settings: both, human, whole blood, oral
[1] = single chromosome; for AUC0–4, phenotypic mean [95% CI] / AUC*, phenotypic mean [95% CI]: race adjusted Thesias; for CL_F, phenotypic mean [95% CI]: sex-adjusted Thesias
[2] = 12-h steady-state tacrolimus pharmacokinetics by CYP3A5*3*6*7 metabolic composite group in renal transplant recipients; assay type: in vivo, human
Method: (§1) Tacrolimus doses were adjusted to 4–9 ng/ml troughs based upon time post-transplant and clinical response using a program-specific minimization protocol. ECMPS was dose adjusted based upon clinical response. Estimated glomerular filtration rate (e-GFR) was calculated using the four-factor MDRD equation ([Levey et al., 1999]). Medication adherence was verified by transplant nurse clinician and medication adherence assessment by transplant pharmacist at enrollment. Ethnicity for two previous generations was verified prior to study.
Loss of protein function due to any one of these variants can occur independent of allelic status at the other two loci; thus assessment of any single SNP may be misleading as an indicator of enzyme function. Patients were assigned a metabolic composite designation as described earlier ([Campagne et al., 2018]) based upon the combined allelic status at all three independent loci (Figure 1). The Extensive Metabolizer phenotype was assigned to individuals with functional genes on both chromosomes. Patients were assigned the Poor Metabolizer phenotype if they were homozygous for the variant allele at any one of the three SNPs and thus CYP3A5 genes on both chromosomes are non-functional (Figure 1C). Patients were designated as Intermediate Metabolizer if they were heterozygous for one loss of function SNP at any of the three loci (Figure 1B). Finally, for patients who were heterozygous at two or more of the SNPs responsible for loss of function, the level of enzyme is dependent upon the arrangement of the variant alleles on each chromosome (Figure 1D). […] For this analysis double heterozygotes (Figure 1D) were conservatively assigned as an Intermediate Metabolizer since individuals could either be poor or intermediate metabolizers.

[3] = Tacrolimus pharmacokinetics stratified by CYP3A5 metabolic composite and ABCB1 3435 genotype; assay type: in vivo, human; settings: for Tmax / AUC / Cmax / concentration at 12 h / clearance: human, whole blood, oral; for concentration at 12 h: read-out: C12hr; for clearance: read-out: CL/LBW (converted)
Method: To assess the role of both CYP3A5 and ABCB1 variants on tacrolimus pharmacokinetics the CYP3A5 metabolic composite groups and the ABCB1 3435C > T (rs1045642) were included in a single analysis. […] Significant effects of both CYP3A5 and ABCB1 variants on tacrolimus pharmacokinetics was assessed using multivariate analysis of variance.
All patient demographics and tacrolimus pharmacokinetic parameters were summarized by metabolic composite score for CYP3A5^∗3^∗6^∗7 using the mean and standard deviation for continuous variables. The potential trend between metabolic composite genotypes and association to tacrolimus pharmacokinetics were evaluated using the two-sided Jonckheere-Terpstra test for trends ([Jonckheere, 1983]). Post hoc pairwise comparisons were made using Holm-Bonferroni adjusted Wilcoxon rank sum tests (version 9.3, SAS Institute, Cary, NC). Significant combined effects reflecting composite metabolic CYP3A5 and ABCB1 variants on tacrolimus pharmacokinetics was assessed using multivariate analysis of variance ([Littell et al., 2006]). Significant effects are shown in bold.

[4] = MPA trough at 12 h in study patients by CYP3A5*3*6*7 metabolic group; settings: both sexes, human, in vivo, oral, ECMPS at steady state
Method: as §1

[5] = ABCB1 3534 CC, CYP3A5 Extensive (N 6)
[6] = ABCB1 3534 CC, CYP3A5 Intermediate (N 10)
[7] = ABCB1 3534 CC, CYP3A5 Poor (N 13)
[8] = ABCB1 3534 CT and TT, CYP3A5 Extensive (N 6)
[9] = ABCB1 3534 CT and TT, CYP3A5 Intermediate (N 10)
[10] = ABCB1 3534 CT and TT, CYP3A5 Poor (N 20)
[11] = 2.35 mg, ABCB1 3534 CT and TT, CYP3A5 Poor (N 20)
[12] = 2.46 mg, ABCB1 3534 CC, CYP3A5 Poor (N 13)
[13] = 3.55 mg, ABCB1 3534 CT and TT, CYP3A5 Intermediate (N 10)
[14] = 4 mg, ABCB1 3534 CC, CYP3A5 Intermediate (N 10)
[15] = 5.08 mg, ABCB1 3534 CT and TT, CYP3A5 Extensive (N 6)
[16] = 5.67 mg, ABCB1 3534 CC, CYP3A5 Extensive (N 6)

With `C=CC[C@@H]1/C=C(\C)C[C@H](C)C[C@H](OC)[C@H]2O[C@@](O)(C(=O)C(=O)N3CCCC[C@H]3C(=O)O[C@H](/C(C)=C/[C@@H]3CC[C@@H](O)[C@H](OC)C3)[C@H](C)[C@@H](O)CC1=O)[C@H](C)C[C@@H]2OC` [tacrolimus] the clearance (clinical; 1.58 mg) was 6 mL/min/kg, the clearance (clinical; 2.45 mg) was 8 mL/min/kg and the “C max/Dose, phenotypic mean [95% CI]” value ([1]; ABCB1 variant haplotype TTT) was 4.06[3.19 – 4.93] ng/ml/mg. The “AUC0–4, phenotypic mean [95% CI]” value ([1]; ABCB1 variant haplotype TTT) was 43.9 [33.4 – 54.4] ng.hr/ml/mg, the “AUC*, phenotypic mean [95% CI]” value ([1]; ABCB1 variant haplotype TTT) was 92.2 [74.6 – 109.8] ng.hr/ml/mg and the “CL_F, phenotypic mean [95% CI]” value ([1]; ABCB1 variant haplotype TTT) was 13.99 [7.87 – 20.11]* L/hr. For the same compound, the “C max/Dose, phenotypic mean [95% CI]” value ([1]; ABCB1 wild type haplotype CGC) was 3.01[2.42 – 3.59] ng/ml/mg, the “AUC0–4, phenotypic mean [95% CI]” value ([1]; ABCB1 wild type haplotype CGC) was 36.59 [30.2 – 42.9] ng.hr/ml/mg and the “AUC*, phenotypic mean [95% CI]” value ([1]; ABCB1 wild type haplotype CGC) was 80.0[68.8 – 91.1] ng.hr/ml/mg. For the same compound, the “CL_F, phenotypic mean [95% CI]” value ([1]; ABCB1 wild type haplotype CGC) was 20.4 [14.5 – 26.3]* L/hr, the “patients with 12-h tacrolimus exposures <120 ng.hr/ml” value ([2]; Blacks, 10/33) was 30% and the “AUC* lower in Extensive than Poor metabolizers” value ([2]; P < 0.001) was 50%. For the same compound, the “patients with 12-h tacrolimus exposures <120 ng.hr/ml” value ([2]; Whites, 17/32) was 53%, the “patients exhibiting AUC0–12 h below the recommended therapeutic range” value ([2]; all patients, in spite of achieving target troughs) was “approximately 40%” and the “dose normalized trough (Cp12hr/dose), Poor compared to Extensive Metabolizers” value ([2]; greater in Poor, P = 0.0016) was 2.5 fold. For the same compound, the “dose-adjusted AUC0–12 h, Poor compared to Extensive metabolizers” value ([2]; higher in Poor, P < 0.001) was 2 fold, the “patients within the therapeutic trough range” value ([2]; target range >4 ng/ml and <15 ng/ml) was 64 of 65 and the “AUC0–12 Dose” value [3, 5] was 23.95 (8.30) ng.hr/ml/mg. The C12hr/dose [3, 5] was 1.43 (0.55) ng/ml/mg, the CL_F [3, 5] was 48.23 (4.32) L/hr and the Cmax/Dose [3, 5] was 3.36 (1.19) ng/ml. For the same compound, the “AUC0–12 Dose” value [3, 6] was 36.76 (6.43) ng.hr/ml/mg, the “AUC*” value [3, 6] was 130.75 (9.73) ng.hr/ml and the C12hr/dose [3, 6] was 2.16 (0.43) ng/ml/mg. For the same compound, the CL_F [3, 6] was 31.30 (3.35) L/hr, the Cmax/Dose [3, 6] was 5.21 (0.92) ng/ml and the “AUC0–12 Dose” value [3, 7] was 56.39 (5.64) ng.hr/ml/mg. For the same compound, the C12hr/dose [3, 7] was 3.44 (0.37) ng/ml/mg, the CL_F [3, 7] was 22.61 (2.94) L/hr and the Cmax/Dose [3, 7] was 7.20 (0.81) ng/ml. For the same compound, the “AUC0–12 Dose” value [3, 8] was 28.97 (8.30) ng.hr/ml/mg, the “AUC*” value [3, 8] was 129.45 (12.57) ng.hr/ml and the C12hr/dose [3, 8] was 1.57 (0.55) ng/ml/mg. For the same compound, the CL_F [3, 8] was 39.53 (4.32) L/hr, the Cmax/Dose [3, 8] was 4.95 (1.19) ng/ml and the “AUC0–12 Dose” value [3, 9] was 42.94 (6.43) ng.hr/ml/mg. The C12hr/dose [3, 9] was 2.40 (0.43) ng/ml/mg, the CL_F [3, 9] was 24.49 (3.35) L/hr and the Cmax/Dose [3, 9] was 6.61 (0.92) ng/ml. For the same compound, the “AUC0–12 Dose” value [3, 10] was 56.80 (4.55) ng.hr/ml/mg, the C12hr/dose [3, 10] was 3.30 (0.30) ng/ml/mg and the CL_F [3, 10] was 20.09 (2.37) L/hr. For the same compound, the Cmax/Dose [3, 10] was 8.09 (0.65) ng/ml, the “effect of ABCB1 3435 T allele on tacrolimus clearance” value ([3]; across all 3 CYP3A5 metabolic composite groups, P = 0.040) was “significantly reduced” and the Tmax ([3]; both sexes, 2.46 mg, ABCB1 3534 CC, CYP3A5 Poor (N 13)) was 1.94 h. For the same compound, the Tmax ([3]; both sexes, 4 mg, ABCB1 3534 CC, CYP3A5 Intermediate (N 10)) was 1.87 h, the Tmax ([3]; both sexes, 5.67 mg, ABCB1 3534 CC, CYP3A5 Extensive (N 6)) was 1.78 h and the AUC ([3]; 2.35 mg, ABCB1 3435 CT and TT, CYP3A5 Poor (N 20)) was 118 ng·h/mL. It also gave a Cmax [3, 11] of 17 ng/mL, a Tmax [3, 11] of 1.72 h and a concentration at 12 h [3, 11] of 6.81 ng/mL. For the same compound, the clearance [3, 11] was 6.5 mL/min/kg, the AUC ([3]; 2.46 mg, ABCB1 3435 CC, CYP3A5 Poor (N 13)) was 117 ng·h/mL and the Cmax [3, 12] was 15.7 ng/mL. It also gave a concentration at 12 h [3, 12] of 6.94 ng/mL, a clearance [3, 12] of 6.17 mL/min/kg and an AUC ([3]; 3.55 mg, ABCB1 3435 CT and TT, CYP3A5 Intermediate (N 10)) of 150 ng·h/mL. The Cmax [3, 13] was 23.3 ng/mL, the Tmax [3, 13] was 2.29 h and the concentration at 12 h [3, 13] was 8.37 ng/mL. For the same compound, the clearance [3, 13] was 6.83 mL/min/kg, the Cmax [3, 14] was 18.6 ng/mL and the concentration at 12 h [3, 14] was 7.55 ng/mL. For the same compound, the clearance [3, 14] was 9.17 mL/min/kg, the Cmax [3, 15] was 23.7 ng/mL and the Tmax [3, 15] was 2.03 h. It also gave a concentration at 12 h [3, 15] of 6.58 ng/mL, a clearance [3, 15] of 13.2 mL/min/kg and an AUC ([3]; 5.67 mg, ABCB1 3435 CC, CYP3A5 Extensive (N 6)) of 122 ng·h/mL. For the same compound, the Cmax [3, 16] was 17 ng/mL, the concentration at 12 h [3, 16] was 7.4 ng/mL and the clearance [3, 16] was 15 mL/min/kg.
Compound `COc1c(C)c2c(c(O)c1C/C=C(\C)CCC(=O)O)C(=O)OC2` [MPA, mycophenolic acid] has a concentration at 12 h ([4]; CYP3A5*3*6*7 Extensive group (N 7)) of 42 ng/mL, a concentration at 12 h ([4]; CYP3A5*3*6*7 Intermediate group (N 23)) of 41 ng/mL and a concentration at 12 h ([4]; CYP3A5*3*6*7 Poor group (N 35)) of 32 ng/mL. For the same compound, the concentration at 12 h ([4]; Overall (N 65)) was 37 ng/mL.
